# Test results published in article PMC10838150 (Toxicology in vitro : an international journal published in …, 2021).
# Where two headings read alike, the source gives them in different places.
# Key:
# [1] = Metabolic clearance; conditions: human, MCF7 cells, Mean Half-life, MCF7, 1 μM, one-phase exponential decay
# [2] = test system: MCF7; assay: Metabolic clearance; conditions: MCF7, 1 μM
# [3] = Metabolic clearance; conditions: human, HepG2 cells, Mean Half-life, HepG2, 1 μM, one-phase exponential decay
# [4] = test system: HepG2; assay: Metabolic clearance; conditions: HepG2, 1 μM
# [5] = Metabolic clearance; conditions: human, HEK293 cells, Mean Half-life, HEK293, 1 μM, one-phase exponential decay
# [6] = test system: HEK293; assay: Metabolic clearance; conditions: HEK293, 1 μM
# [7] = Metabolic clearance; conditions: human, Mean Half-life, 50-donor pool PHHs, one-phase exponential decay
# [8] = test system: 50-donor pool PHHs; assay: Metabolic clearance; conditions: 1 μM
# [9] = test system: PHHs; conditions: 150 minutes, 50 μM 7HC
# [10] = test system: HepG2
# [11] = test system: HEK293
# [12] = test system: MCF7
# [13] = test system: CYP1A2; assay: CYP450-Glo bioluminescent assay CYP1A2 in Tox21 cell lines; type: cell-based; conditions: 24 hours pretreatment
# [14] = test system: 50-donor pool PHHs; conditions: human, 1 μM
# [15] = test system: HepG2; conditions: human, 1 μM
# [16] = test system: HEK293; conditions: human, 1 μM
# [17] = test system: MCF7; conditions: human, 1 μM
# [18] = target: T1, CYP2B6 (Homo sapiens, UniProt P20813); assay: Hydroxybupropion formation from bupropion in HepG2; type: in vitro ADME; conditions: HepG2 cells
# T1 sequence (P20813 1-491): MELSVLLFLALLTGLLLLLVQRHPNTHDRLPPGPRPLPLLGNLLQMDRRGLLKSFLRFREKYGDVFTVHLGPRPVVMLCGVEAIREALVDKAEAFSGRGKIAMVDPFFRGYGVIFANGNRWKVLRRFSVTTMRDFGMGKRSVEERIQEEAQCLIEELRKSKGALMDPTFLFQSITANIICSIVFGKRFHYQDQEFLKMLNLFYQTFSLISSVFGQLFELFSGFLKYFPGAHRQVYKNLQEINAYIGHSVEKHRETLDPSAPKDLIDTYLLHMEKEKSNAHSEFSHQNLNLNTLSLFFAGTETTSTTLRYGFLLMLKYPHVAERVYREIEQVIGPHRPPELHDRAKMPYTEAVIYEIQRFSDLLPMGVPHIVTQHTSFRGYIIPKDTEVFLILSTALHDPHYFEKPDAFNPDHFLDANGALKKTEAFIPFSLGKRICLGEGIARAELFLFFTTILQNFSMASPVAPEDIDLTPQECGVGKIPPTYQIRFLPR
# [19] = target: T1, CYP2B6; assay: Hydroxybupropion formation from bupropion in HEK293; type: in vitro ADME; conditions: HEK293 cells
# [20] = target: T1, CYP2B6; assay: Hydroxybupropion formation from bupropion in HCT116; type: in vitro ADME; conditions: HCT116 cells
# [21] = test system: CYP2B6; assay: Hydroxybupropion formation from bupropion in C3H10T1/2; type: in vitro ADME, mouse; conditions: C3H10T1/2, 24 h, Michaelis-Menten fit
# [22] = test system: CYP3A4/5; assay: 1-Hydroxymidazolam formation from midazolam in PHH suspensions; type: in vitro ADME, human
# [23] = test system: CYP3A4/5; assay: 1-Hydroxymidazolam formation from midazolam in HepG2; type: in vitro ADME, human
# [24] = test system: CYP1A2; assay: Acetaminophen formation from phenacetin in HepG2; type: in vitro ADME, human
# [25] = test system: CYP1A2; assay: Acetaminophen formation from phenacetin in C3H10T1/2; type: in vitro ADME, mouse
# [26] = test system: sulfotransferase; conditions: ref Ishii and Tamura, 2003, cited from earlier work
# [27] = HepG2, 24 h, Michaelis-Menten fit
smiles,measurement,setting,value
"O=c1ccc2ccc(O)cc2o1 [7HC, 7-hydroxycoumarin]",half-life at 1 μM,[1],~290 min
same,Percent Depletion 240 min,[2],40%
same,Mean Half-life,[2]; one-phase exponential decay,292.5 min
same,half-life at 1 μM,[3],~290 min
same,Percent Depletion 240 min,[4],27%
same,Mean Half-life,[4]; one-phase exponential decay,290.6 min
same,half-life at 1 μM,[5],~210 min
same,Percent Depletion 240 min,[6],50%
same,Percent Depletion 24 hour,[6],99%
same,Mean Half-life,[6]; one-phase exponential decay,209.9 min
same,half-life at 1 μM,[7],~23 min
same,Percent Depletion 240 min,[8],99%
same,Mean Half-life,[8]; one-phase exponential decay,22.7 min
"O=C(O)[C@H]1O[C@@H](Oc2ccc3ccc(=O)oc3c2)[C@H](O)[C@@H](O)[C@@H]1O [7HCG, 7-hydroxycoumarin glucuronide]",Phase II Metabolite Formation Rate,[9],190 ± 41.8 pmol/minute-million cells
same,Phase II Metabolite Formation Rate,"[10]; HepG2, 150 minutes, 50 μM 7HC",1.96 ± 0.887 pmol/minute-million cells
same,Phase II Metabolite Formation Rate,"[10]; HepG2, 24 hours, 50 μM 7HC",2.89 ± 0.563 pmol/minute-million cells
same,Phase II Metabolite Formation Rate,"[11]; HEK293, 150 minutes, 50 μM 7HC",-------------^1
same,Phase II Metabolite Formation Rate,"[11]; HEK293, 24 hours, 50 μM 7HC",-------------^1
same,Phase II Metabolite Formation Rate,"[12]; MCF7, 150 minutes, 50 μM 7HC",1.34 ± 0.206 pmol/minute-million cells
same,Phase II Metabolite Formation Rate,"[12]; MCF7, 24 hours, 50 μM 7HC",0.809 ± 0.0457 pmol/minute-million cells
"Nn1nnc2ccccc21 [ABT, aminobenzotriazole]",inhibition of CYP1A2 luminescent metabolite formation,"[13]; ABT 1 mM, HepG2, MCF7, CHO-K1, C3H10T1/2, GH3TRE-Luc",only inhibited in CHO-K1 cells
"O=C(O)[C@H]1O[C@@H](Oc2ccc(C(c3ccc(O)cc3)(C(F)(F)F)C(F)(F)F)cc2)[C@H](O)[C@@H](O)[C@@H]1O [BPAF G, bisphenol AF glucuronide]",Phase II Metabolite Formation Rate,"[10]; HepG2, 150 minutes, 50 μM BPAF or BPS",-------------^1
same,Phase II Metabolite Formation Rate,"[11]; HEK293, 150 minutes, 50 μM BPAF or BPS",-------------^1
same,Phase II Metabolite Formation Rate,"[11]; HEK293, 24 hours, 50 μM BPAF or BPS",-------------^1
same,Phase II Metabolite Formation Rate,"[12]; MCF7, 150 minutes, 50 μM BPAF or BPS",-------------^1
same,Phase II Metabolite Formation Rate,"[12]; MCF7, 24 hours, 50 μM BPAF or BPS",-------------^1
"Oc1ccc(C(c2ccc(O)cc2)(C(F)(F)F)C(F)(F)F)cc1 [BPAF, bisphenol AF]",Percent Depletion 240 min,[14]; 240 min,82 ±/- 2.9%
same,Mean Half-life,[14]; hepatocytes,86.3 min
same,Percent Depletion 240 min,[15]; 240 min,36 ±/- 8.2%
same,Percent Depletion 24 hour,[15]; 24 h,66 ±/- 6.6%
same,Mean Half-life (fast),[15]; other cell line,31.2 min
same,Mean Half-life (slow),[15]; other cell line,"1,626 min"
same,Percent Depletion 240 min,[16]; 240 min,36 ±/- 5.4%
same,Percent Depletion 24 hour,[16]; 24 h,60 ±/- 4.5%
same,Mean Half-life (slow),[16]; other cell line,"~1,887 min"
same,Percent Depletion 240 min,[17]; 240 min,42 ±/- 7.7%
same,Percent Depletion 24 hour,[17]; 24 h,55 ±/- 7.4%
same,Mean Half-life (fast),[17]; other cell line,23.3 min
same,Mean Half-life (slow),[17]; other cell line,"~9,684 min"
"CC(NC(C)(C)C)C(=O)c1cccc(Cl)c1 (stereo not drawn) [Bupropion, bupropion]",Km at 24 h,[18],4.79 ± 5.48 µM
same,Km at 24 h,[19],1.26 ± 0.734 mM
same,Km at 24 h,[20],1.91 ± 1.05 mM
same,Vmax CYP2B6,[21],0.0422 ± 0.0119
"Cc1ncc2n1-c1ccc(Cl)cc1C(c1ccccc1F)=NC2 [Midazolam, midazolam]",Vmax CYP3A4/5,"[22]; PHH, 30 min, Michaelis-Menten fit",187 ± 8.35
same,Km at 30 min,[22]; human,10.7 ± 1.34 µM
same,Vmax CYP3A4/5,[23]; [27],0.0177 ± 0.000912
same,Km at 24 h,"[23]; human, HepG2 cells",969 ± 268 nM
"COc1ccc2[nH]c([S+]([O-])Cc3ncc(C)c(OC)c3C)nc2c1 (stereo not drawn) [OMP, omeprazole]",induction of CYP1A2 luminescence,"[13]; OMP 100 μM, Tox21 cell lines",only marginal increased luminescence
CCOc1ccc(NC(C)=O)cc1 [Phenacetin],Vmax CYP1A2,[24]; [27],0.320 ± 0.0234
same,Km at 24 h,"[24]; human, HepG2 cells",38.4 ± 11.8 µM
same,Vmax CYP1A2,"[25]; C3H10T1/2, 24 h, Michaelis-Menten fit",0.168 ± 0.0393
same,Km at 24 h,"[25]; mouse, C3H10T1/2 cells",247 ± 111 µM
CC(C)(c1ccc(O)cc1)c1ccc(O)cc1 [bisphenol A],depletion,[26]; after 5 days incubations with 10 μM exposure,4%
same,Km,[26]; read-out: apparent Km for sulfotransferase activity,74 µM
